Measurements from patent publication US9493466B2, “Treatment of cancer with TOR kinase inhibitors” (Signal Pharmaceuticals, LLC, priority 2011, dated 2016).

How the values were obtained:
Test in all cases: Growth inhibition assay for NHL lines
Format in all cases: cell-based
[1] = tested on: Pfeiffer; details: NHL DLBCL, 96 hours, n ≧ 3
Method: (§1) Growth Inhibition Assay for HCC and NHL Lines. The seeding density for each cell line was optimized to ensure assay linearity in 384-well plates.
(§2) Compound 1 was dissolved in dimethyl sulfoxide (DMSO) to prepare a 10 mM stock solution. A serial titration was performed to produce a working concentration range of […] to 10 mM. Aliquots to produce final concentrations of 1.5 nM to 10 μM were spotted via an acoustic dispenser (EDC ATS-100) into an empty 384-well plate. Compound 1 was spotted in a 10-point serial dilution fashion (3-fold dilution) in duplicate within the plate. The DMSO concentration was kept constant for a final assay concentration of 0.1% DMSO. Plates were replicated for use with different cell lines and testing periods. After compound plate replication, all plates were sealed (Agilent ThermoLoc) and stored at −20° C. for up to 1 month. […] When ready for testing, plates were removed from the freezer, thawed, and unsealed just prior to the addition of the test cells. Prior to testing, cells were grown and expanded in culture flasks to provide sufficient amounts of starting material. Cells were then diluted to the appropriate densities and added directly to the compound-spotted 384-well plates. Cells were allowed to grow for 96 hours at 37° C./5% CO2. At the time when compound was added (t0), initial cell number was assessed via a viability assay (Cell Titer-Glo) by quantifying the level of luminescence generated by ATP present in viable cells. After 96 hours, cell viability of compound-treated cells was assessed via Cell Titer-Glo and luminescence measurement. Cell lines were assayed for growth inhibition by Compound 1 in at least 3 independent tests. A control cell line (the lung tumor cell line, A549) was included in each of the assays. The compound response against this control cell line was monitored closely to enable comparison of the data generated through the assay period. All data were normalized and presented as a percentage of the DMSO-treated cells. Results were then expressed as a GI50 value. The GI50 value corrects for the cell count at time zero. In addition, the IC50 value of Compound 1 for each cell line was calculated.

[2] = tested on: KG-1; details: KG-1, Leukemia M-AML, 96 hours, n ≧ 3
Method: as §1, §2

[3] = tested on: JVM-13; details: JVM-13, NHL MCL, 96 hours, n ≧ 3
Method: as §1, §2

[4] = tested on: RIVA; details: NHL DLBCL, 96 hours, n ≧ 3
Method: as §1, §2

[5] = tested on: Granta-519; details: Granta-519, NHL MCL, 96 hours, n ≧ 3
Method: as §1, §2

[6] = tested on: SU-DHL-16; details: SU-DHL-16, NHL DLBCL, 96 hours, n ≧ 3
Method: as §1, §2

[7] = tested on: THP-1; details: THP-1, Leukemia M-AML, 96 hours, n ≧ 3
Method: as §1, §2

[8] = tested on: SU-DHL-6; details: SU-DHL-6, NHL DLBCL, 96 hours, n ≧ 3
Method: as §1, §2

[9] = tested on: U-2932; details: U-2932, NHL DLBCL, 96 hours, n ≧ 3
Method: as §1, §2

[10] = tested on: Mino; details: NHL MCL, 96 hours, n ≧ 3
Method: as §1, §2

[11] = tested on: Toledo; details: NHL DLBCL, 96 hours, n ≧ 3
Method: as §1, §2

[12] = tested on: SU-DHL-1; details: SU-DHL-1, ALCL T-cell, 96 hours, n ≧ 3
Method: as §1, §2

[13] = tested on: SC-1; details: SC-1, NHL FL, 96 hours, n ≧ 3
Method: as §1, §2

[14] = tested on: HL-60; details: HL-60, Leukemia M-AML, 96 hours, n ≧ 3
Method: as §1, §2

[15] = tested on: JVM-2; details: JVM-2, NHL MCL, 96 hours, n ≧ 3
Method: as §1, §2

[16] = tested on: OCI-LY-19; details: OCI-LY-19, NHL DLBCL, 96 hours, n ≧ 3
Method: as §1, §2

[17] = tested on: DOHH-2; details: DOHH-2, NHL FL, 96 hours, n ≧ 3
Method: as §1, §2

[18] = tested on: WSU-DLCL2; details: WSU-DLCL2, NHL DLBCL, 96 hours, n ≧ 3
Method: as §1, §2

[19] = tested on: OCI-LY-7; details: OCI-LY-7, NHL DLBCL, 96 hours, n ≧ 3
Method: as §1, §2

[20] = tested on: SU-DHL-10; details: SU-DHL-10, NHL DLBCL, 96 hours, n ≧ 3
Method: as §1, §2

[21] = tested on: SU-DHL-5; details: SU-DHL-5, NHL DLBCL, 96 hours, n ≧ 3
Method: as §1, §2

[22] = tested on: NU-DHL-1; details: NU-DHL-1, NHL DLBCL, 96 hours, n ≧ 3
Method: as §1, §2

[23] = tested on: JEKO-1; details: JEKO-1, NHL MCL, 96 hours, n ≧ 3
Method: as §1, §2

[24] = tested on: U-2940; details: U-2940, NHL DLBCL, 96 hours, n ≧ 3
Method: as §1, §2

## CO[C@H]1CC[C@H](N2C(=O)CNc3ncc(-c4ccc(C(C)(C)O)nc4)nc32)CC1 [Compound 1, 7-(6-(2-hydroxypropan-2-yl)pyridin-3-yl)-1-((1r,4r)-4-methoxycyclohexyl)-3,4-dihydropyrazino-[2,3-b]pyrazin-2(1H)-one]
[1]
  GI50: 90 ± 40 nM
  IC50: 190 ± 70 nM
[2]
  GI50: 60 ± 20 nM
  IC50: 370 ± 40 nM
[3]
  GI50: 1770 ± 1610 nM
  IC50: 3490 ± 2480 nM
[4]
  GI50: 20 ± 10 nM
  IC50: 100 ± 50 nM
[5]
  GI50: 380 ± 80 nM
  IC50: 960 ± 100 nM
[6]
  GI50: 110 ± 20 nM
  IC50: 110 ± 20 nM
[7]
  GI50: 230 ± 110 nM
  IC50: 570 ± 160 nM
[8]
  GI50: 160 ± 40 nM
  IC50: 200 ± 60 nM
[9]
  GI50: 300 ± 30 nM
  IC50: 450 ± 10 nM
[10]
  GI50: 370 ± 130 nM
  IC50: 480 ± 100 nM
[11]
  GI50: 70 ± 20 nM
  IC50: 440 ± 20 nM
[12]
  GI50: 320 ± 20 nM
  IC50: 390 ± 30 nM
[13]
  GI50: 180 ± 10 nM
  IC50: 200 ± 10 nM
[14]
  GI50: 240 ± 60 nM
  IC50: 380 ± 130 nM
[15]
  GI50: 260 ± 50 nM
  IC50: 440 ± 180 nM
[16]
  GI50: 220 ± 60 nM
  IC50: 350 ± 80 nM
[17]
  GI50: 130 ± 20 nM
  IC50: 160 ± 30 nM
[18]
  GI50: 90 ± 20 nM
  IC50: 90 ± 20 nM
[19]
  GI50: 190 ± 30 nM
  IC50: 250 ± 30 nM
[20]
  GI50: 200 ± 20 nM
  IC50: 200 ± 30 nM
[21]
  GI50: 230 ± 130 nM
  IC50: 260 ± 140 nM
[22]
  GI50: 80 ± 30 nM
  IC50: 110 ± 50 nM
[23]
  GI50: 70 ± 40 nM
  IC50: 100 ± 50 nM
[24]
  GI50: 110 ± 70 nM
  IC50: 180 ± 100 nM
